Reference: patent publication US8759400B2, “Histone deacetylase inhibitors for enhancing activity of antifungal agents” (MethylGene Inc., priority 2005, dated 2014)
≈ marks a conversion by molar mass, not a printed value. Read-outs that look alike come from different tables or passages of the source.

Experiments:
C. albicans (ATCC 90028) = assay: MIC80 and checkerboard synergy with antifungal agents; type: cell-based, Candida albicans; conditions: Candida albicans, ATCC90028; compound alone; C. albicans (ATCC 90028); read-out: MIC80
HDAC [1] = assay: HDAC inhibitory activity in fungal protoplasts (Fluor-de-Lys); type: cell-based, Candida glabrata; conditions: C. glabrata protoplasts
Experimental: (§1) Protoplasts of C. albicans and C. glabrata are prepared by the […] method of Franzusoff et al.

ERG11 expression = ERG11 expression with fluconazole (FIG. 3); type: cell-based; conditions: compound 6 and fluconazole, C. albicans
HDAC [2] = assay: HDAC inhibitory activity in fungal protoplasts (Fluor-de-Lys); type: cell-based, Candida albicans; conditions: C. albicans protoplasts
Experimental: as §1

HMEC [3] = assay: Mammalian cytotoxicity, MTT reduction
C. glabrata (ATCC 90030) [4] = assay: MIC80 and checkerboard synergy with antifungal agents; type: cell-based, Candida glabrata; conditions: Nakaseomyces glabratus, ATCC90030; compound alone; C. glabrata (ATCC 90030); read-out: MIC80
HDAC [5] = assay: HDAC inhibitory activity in fungal protoplasts (Boc-Lys(Ac)-AMC); type: cell-based, Aspergillus fumigatus; conditions: A. fumigatus protoplasts
A. fumigatus ATCC 1022 = assay: MIC80 and checkerboard synergy, broth microdilution (NCCLS M38-A); type: cell-based, Aspergillus fumigatus; conditions: A. fumigatus ATCC 1022; for conc. for 4-fold synergy: with ketoconazole, 48 hours
HMEC [6] = conditions: human
[7] = tested on: C. glabrata parent strain (ATCC 90030) and C. glabrata mutants; assay: microbe, parasite or virus in culture; type: cell-based; conditions: for MIC80: azole alone
C. glabrata = assay: Post-antifungal effect (PAFE); type: cell-based; conditions: itraconazole alone at 0.25 MIC
Experimental: The post-antifungal effect (PAFE) is the time needed to achieve one log10 of cell growth after drug removal. One-two colonies are resuspended in 5 ml YPD. […] Cells are incubated at 30° C. overnight. In the morning, the optical density at 600 nm is read. Cells at A600 the closest but not surpassing 0.3 (early log-phase cells) are picked for further treatments as follows: […] Counts of CFU/ml are performed at time zero, before and after diluting the cells and at predetermined time points in order to determine the PAFE and the cidal potential of each drug combination (FIGS. 5-10).

A. flavus = assay: Clinical isolates, CLSI M38-A broth microdilution and checkerboard; type: cell-based; conditions: itraconazole alone, 48 hour endpoint, listed as ITR
C. glabrata (ATCC 90030) [8] = type: cell-based; conditions: agar plates containing 4×MIC of the relevant azole alone

SMILES | MIC (C. albicans (ATCC 90028)) [µg/mL] | HDAC inhibition IC50 (HDAC [1]) [µg/mL] | HDAC inhibition IC50 (HDAC [2]) [µg/mL] | MIC (C. glabrata (ATCC 90030) [4]) [µg/mL] | HDAC inhibition IC50 (HDAC [5]) [µg/mL] | conc. for 4-fold synergy (A. fumigatus ATCC 1022) [µg/mL] | MTT HMEC (HMEC [6]) [µM] | also measured
O=C(CCc1ccc(CCCc2ccccc2)cc1)NO [Cpd 6] | 25 | > 20 | >20 | 25 |  |  |  | HDAC inhibition, per cent in parentheses beside IC50 >20 (HDAC [1]; concentration not given): 22%; ERG11 expression (ERG11 expression): decreases; MTT HMEC (HMEC [3]): 40 µM
O=C(/C=C/c1ccc(CN(CCO)CCc2c[nH]c3ccccc23)cc1)NO [LAQ-824, reference compound] | > 128 | 0.01 | 0.01 | > 64 | 0.01 | >128 | 0.75 | MIC (A. fumigatus ATCC 1022; Aspergillus fumigatus, ATCC1022, 48 h, compound alone, read-out: MIC80): > 128 µg/mL
Nc1ccccc1NC(=O)c1ccc(CNC(=O)OCc2cccnc2)cc1 [MS275, reference compound] |  | >20 | >20 |  | >40 | >128 | 22 | MIC80 (C. albicans (ATCC 90028)): > 128 µg/mL; MIC80 (A. fumigatus ATCC 1022; Aspergillus fumigatus, ATCC1022, compound alone, read-out: MIC80): > 128 µg/mL; MIC80 (C. glabrata (ATCC 90030) [4]): > 64 µg/mL
CCC(C)n1ncn(-c2ccc(N3CCN(c4ccc(OCC5COC(Cn6cncn6)(c6ccc(Cl)cc6Cl)O5)cc4)CC3)cc2)c1=O (stereo not shown) [itraconazole, reference compound] |  |  |  |  |  |  |  | MIC80 ([7]; C. glabrata mutants resistant to that azole): > 64 µg/mL; MIC80 ([7]; C. glabrata parent strain): 1 µg/mL (≈ 1.42 µM); MIC80 itraconazole relative to wild type ([7]; fluconazole-resistant mutants (all)): 64 × wild type; itraconazole MIC80 in presence of Compound 4 ([7]; itraconazole-resistant mutants): ≤ 1 µg/mL; PAFE (C. glabrata): No PAFE; ITR MIC (A. flavus; A. flavus isolate 20351.092): 0.5 µg/mL; ITR MIC (A. flavus; A. flavus isolate 20414.083): 1.0 µg/mL; frequency of resistant C. glabrata mutants (C. glabrata (ATCC 90030) [8]): 3×10^−7
